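Interpolation was linear, between the two tested concentrations surrounding the appropriate level; five concentrations were tested over 48 hours in 96-well plates. GI50 marks 50% less growth.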 Calls of active or inactive are those of the source. Cut-off read from the data, not from the text of the source: active = GI50 up to about 1.1 µM and inactive = higher.
Columns and labels:
Experiment in all cases: NCI-60 cell line screen, 48 h
HOP-18 = tested on: HOP-18
M19-MEL = tested on: M19-MEL
SNB-78 = tested on: SNB-78
DMS-114 = tested on: DMS-114
KM-20L2 = tested on: KM-20L2
BT-549 = tested on: BT-549
DLD-1 = tested on: DLD-1
RXF 631 = tested on: RXF 631
XF498 = tested on: XF498

Measured: GI50

COC(=O)NC1C(C)OC(OC2C/C=C(/C)C3C=CC4C(OC5CC(OC6CC(O)C(OC7CC(O)C(OC)C(C)O7)C(C)O6)C(O)C(C)O5)C(C)CC(C)C4C3(C)C(=O)C3=C(O)C4(CC(C)C(CO)=CC4/C=C\2C)OC3=O)CC1(C)[N+](=O)[O-] (stereo not drawn)
inactive: HOP-18 15.1 µM | M19-MEL 4.43 µM | SNB-78 5.47 µM | DMS-114 2.5 µM | KM-20L2 17.1 µM | BT-549 13.5 µM | DLD-1 12.7 µM | RXF 631 21 µM | XF498 10.6 µM

C/C(=C1/N=C(c2cc([N+](=O)[O-])ccc2Cl)N(c2ccc(Br)cc2)C1=O)c1ccc(N(CCC#N)CCC#N)cc1C
inactive: HOP-18 76.9 µM | M19-MEL 29.1 µM | SNB-78 40.6 µM | DMS-114 12.3 µM | KM-20L2 16.1 µM | DLD-1 15.9 µM | RXF 631 > 100 µM | XF498 4.71 µM

CO[C@H](c1ccccc1)[C@H](C)N(C)c1ccc2ccccc2c1C1=NC(C)(C)CO1
inactive: HOP-18 17.1 µM | M19-MEL 15.3 µM | DMS-114 12.1 µM | KM-20L2 13.4 µM | DLD-1 13 µM | RXF 631 15 µM | XF498 17.1 µM

N#Cc1c(-c2ccc(Cl)c(Cl)c2)c(-c2ccc(Cl)c(Cl)c2)nn(CC(=O)O)c1=O
inactive: HOP-18 64.3 µM | M19-MEL > 100 µM | SNB-78 > 100 µM | KM-20L2 24.2 µM | DLD-1 63.5 µM | RXF 631 64.9 µM | XF498 27.9 µM

Cc1cc(Cl)ccc1NC(=O)/C(=N\NC(C)(C)C)C(C#N)c1nc(-c2ccc([N+](=O)[O-])cc2)cs1 (stereo not drawn)
inactive: HOP-18 > 100 µM | M19-MEL > 100 µM | SNB-78 > 100 µM | DMS-114 > 100 µM | KM-20L2 > 100 µM | DLD-1 > 100 µM | RXF 631 > 100 µM | XF498 > 100 µM

Oc1ccccc1/C=C/c1csnn1
inactive: HOP-18 > 100 µM | M19-MEL > 100 µM | SNB-78 > 100 µM | DMS-114 > 84.1 µM | KM-20L2 > 100 µM | DLD-1 > 100 µM | RXF 631 > 100 µM | XF498 > 100 µM

O=C(CC1(O)C(=O)Nc2c(Cl)cc(Cl)cc21)c1cccc([N+](=O)[O-])c1 (stereo not drawn)
inactive: HOP-18 32.3 µM | M19-MEL 5.14 µM | SNB-78 41.5 µM | DMS-114 21.5 µM | KM-20L2 52.1 µM | BT-549 61 µM | DLD-1 43.2 µM | RXF 631 24.8 µM | XF498 20.7 µM

COCNC(=NC#N)NCOC
inactive: HOP-18 > 100 µM | M19-MEL > 59.8 µM | DMS-114 > 51.8 µM | KM-20L2 > 76 µM | DLD-1 > 62.8 µM | RXF 631 > 100 µM | XF498 > 100 µM

CCOC(=O)c1c[nH]c2c(ccc3nn(C)nc32)c1=O
inactive: HOP-18 > 100 µM | M19-MEL > 100 µM | SNB-78 15.5 µM | DMS-114 49.8 µM | KM-20L2 > 100 µM | DLD-1 50.4 µM | RXF 631 > 100 µM | XF498 > 100 µM

CC(C(=O)c1ccc(Cl)cc1)C1OC(=O)C(Cl)=C1Cl (stereo not drawn)
inactive: HOP-18 50.4 µM | M19-MEL 23 µM | DMS-114 26.2 µM | KM-20L2 86.1 µM | DLD-1 21.6 µM | RXF 631 > 100 µM | XF498 20.5 µM

From ChEMBL document CHEMBL1201862, “PubChem BioAssay data set” (2004)
